Measured values taken from the NIST ThermoML archive (doi:10.1021/acs.jced.9b00794).
Numbers after ± are expanded uncertainties.

Details: 100 kPa, Liquid, Vibrating tube method

**Q.** Which mass density (288.15 K) does the source give for `NC=O` [formamide] here?
**A.** Its mass density is 1137.91 ± 0.11 kg/m3.

**Q.** And the mass density (298.15 K)?
**A.** The mass density was 1129.49 ± 0.11 kg/m3.

**Q.** What about the mass density (308.15 K) of the same compound?
**A.** Its mass density is 1121.04 ± 0.11 kg/m3.

**Q.** What about the mass density (318.15 K) of the same compound?
**A.** The mass density was 1112.55 ± 0.1 kg/m3.

**Q.** And the mass density (328.15 K)?
**A.** Its mass density is 1104.04 ± 0.1 kg/m3.

**Q.** For `O` [water], which mass density (328.15 K) is on record?
**A.** Its mass density is 985.69 ± 0.05 kg/m3.
